Data taken from patent US9611251B2, “Substituted piperidine compounds and their use as orexin receptor modulators” (Janssen Pharmaceutica NV, priority 2013, dated 2017).
pKi: −log10 of the molar value.

Tests used:
[1] = target: rat orexin 1 receptor (Rattus norvegicus, UniProt P56718); experiment: Rat orexin 1 receptor radioligand binding; settings: rat orexin 1 receptor radioligand binding; averages of 2-20 runs; read-out: rOX1 Ki
In short: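 Cell-suspension competition binding used 4 nM final tritiated thiazolyl-pyrrolidinyl-methanone radioligand in PBS, ≤0.1% DMSO, with 10 µM almorexant defining nonspecific binding. Filter-bound radioactivity was counted in triplicate. IC50 came from one-site competition fits and was converted to Ki using the predetermined Kd.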

[2] = target: human orexin 1 receptor (Homo sapiens, UniProt O43613); experiment: Human orexin 1 receptor radioligand binding; settings: human orexin 1 receptor radioligand binding; averages of 2-20 runs; read-out: hOX1 Ki
[3] = target: human orexin 2 receptor (Homo sapiens (Human), UniProt O43614); experiment: Human orexin 2 receptor radioligand binding ([3H]-EMPA); settings: averages of 2-20 runs, read-out: hOX2 Ki
In short: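 Competition binding using homogenized HEK293 cells stably expressing human orexin 2 receptor, [3H]-EMPA at 2 nM final and ≤0.1% DMSO; nonspecific binding set with 10 μM almorexant. Filter-bound radioactivity counted by scintillation; one-site competition IC50 converted to Ki using pre-determined Kd, compounds run in triplicate.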

Chain of human orexin 2 receptor (O43614 whole entry): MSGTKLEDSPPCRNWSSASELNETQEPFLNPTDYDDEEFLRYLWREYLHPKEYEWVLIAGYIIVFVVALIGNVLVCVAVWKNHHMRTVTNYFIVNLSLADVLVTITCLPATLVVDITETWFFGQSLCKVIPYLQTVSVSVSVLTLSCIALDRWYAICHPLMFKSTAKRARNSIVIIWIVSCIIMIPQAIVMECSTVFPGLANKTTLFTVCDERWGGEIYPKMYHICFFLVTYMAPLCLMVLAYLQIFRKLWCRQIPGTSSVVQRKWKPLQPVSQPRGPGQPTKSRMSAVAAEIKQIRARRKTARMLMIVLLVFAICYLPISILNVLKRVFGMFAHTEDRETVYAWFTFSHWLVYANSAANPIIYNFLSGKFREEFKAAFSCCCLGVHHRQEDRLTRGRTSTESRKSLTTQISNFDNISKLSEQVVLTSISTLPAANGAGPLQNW

Row | pKi [1] | pKi [2] | pKi [3] | Compound
1 | 7.64 | 7.60 | 6.41 | Cc1cccc(C(=O)N2CCC[C@@H](Oc3ncc(C(F)(F)F)cc3F)[C@@H]2C)c1-c1ncccn1 [Example 220, ((2S,3R)-3-((3-fluoro-5-(trifluoromethyl)pyridin-2-yl)oxy)-2-methylpiperidin-1-yl)(3-methyl-2-(pyrimidin-2-yl)phenyl)methanone]
2 | 7.49 | 7.36 | 6.27 | C[C@H]1[C@H](Oc2ncc(C(F)(F)F)cc2F)CCCN1C(=O)c1cc(F)ccc1-c1ncccn1 [Example 221, (5-fluoro-2-(pyrimidin-2-yl)phenyl)((2S,3R)-3-((3-fluoro-5-(trifluoromethyl)pyridin-2-yl)oxy)-2-methylpiperidin-1-yl)methanone]
3 | 7.26 | 7.04 | 5.89 | C[C@H]1[C@H](Oc2ncc(C(F)(F)F)cc2F)CCCN1C(=O)c1ccc(F)cc1-c1ncccn1 [Example 222, (4-fluoro-2-(pyrimidin-2-yl)phenyl)((2S,3R)-3-((3-fluoro-5-(trifluoromethyl)pyridin-2-yl)oxy)-2-methylpiperidin-1-yl)methanone]
4 | 7.46 | 7.35 | 6.43 | Cc1ccc(-c2ncccn2)c(C(=O)N2CCC[C@@H](Oc3ncc(C(F)(F)F)cc3F)[C@@H]2C)n1 [Example 223, ((2S,3R)-3-((3-fluoro-5-(trifluoromethyl)pyridin-2-yl)oxy)-2-methylpiperidin-1-yl)(6-methyl-3-(pyrimidin-2-yl)pyridin-2-yl)methanone]
5 | 7.48 | 7.33 | 6.24 | C[C@H]1[C@H](Oc2ncc(C(F)(F)F)cc2F)CCCN1C(=O)c1ccccc1-n1nccn1 [Example 224, (2-(2H-1,2,3-triazol-2-yl)phenyl)((2S,3R)-3-((3-fluoro-5-(trifluoromethyl)pyridin-2-yl)oxy)-2-methylpiperidin-1-yl)methanone]
